Data reported in patent publication US20240307382A1, “MODULATORS OF THE INTEGRATED STRESS PATHWAY” (Calico Life Sciences LLC, priority 2017, published 2024).
pEC50: −log10 of the molar value.

tested on: HEK293T cells carrying the ATF4 luciferase reporter; test: ATF4-Luc assay (ATF4 luciferase reporter, tunicamycin-treated cells); format: cell-based; settings: Homo sapiens, HEK-293T, 1 μg/mL tunicamycin, 7 hours
Procedure: In order to test exemplary compounds of the invention in a cellular context, a stable VWMD cell line was first constructed. The ATF4 reporter was prepared by fusing the human full-length ATF4 5′-UTR (NCBI Accession No. BC022088.2) in front of the firefly luciferase (FLuc) coding sequence lacking the initiator methionine as described in Sidrauski et al (eLife 2013). The construct was used to produce recombinant retroviruses using standard methods and the resulting viral supermatant was used to transduce ITEK293T cells, which were then subsequently selected with puromycin to generate a stable cell line.
HTEK293T cells carrying the ATF4 luciferase reporter were plated on polylysine coated 384-well plates (Greiner Bio-one) at 30,000 cells per well. Cells were treated the next day with 1 μg/mL tunicamycin and 200 nM of a compound of Formula (I) for 7 hours. Luminescence was measured using One Glo (Promega) as specified by the manufacturer. Cells were maintained in DMEM with L-glutamine supplemented with 10% heat-inactivated FBS (Gibco) and Antibiotic-Antimycotic solution (Gibco).
Table 2 below summarizes the EC50 data obtained using the ATF4-Luc assay for exemplary compounds of the invention.

Structure (SMILES)	pEC50
CN(C)Cc1ccnc(C(=O)NC23CCC(NC(=O)COc4ccc(Cl)c(F)c4)(CC2)CC3)c1 [Compound 974, N-{4-[2-(4-chloro-3-fluorophenoxy)acetamido]bicyclo[2.2.2]octan-1-yl}-4-[(dimethylamino)methyl]pyridine-2-carboxamide]	< 5.70
NCc1ccnc(C(=O)NC23CCC(NC(=O)COc4ccc(Cl)c(F)c4)(CC2)CC3)c1 [Compound 975, 4-(aminomethyl)-N-{4-[2-(4-chloro-3-fluorophenoxy)acetamido]bicyclo[2.2.2]octan-1-yl}pyridine-2-carboxamide]	> 7.30
O=C(COc1ccc(Cl)c(F)c1)NC12CCC(NC(=O)c3cc4cccn4cn3)(CC1)C[C@@H]2O [Compound 976, N-{(3S)-4-[2-(4-chloro-3-fluorophenoxy)acetamido]-3-hydroxybicyclo[2.2.2]octan-1-yl}pyrrolo[1,2-c]pyrimidine-3-carboxamide]	6.60 to 7.30
O=C(COc1ccc(Cl)c(F)c1)NC12CCC(NC(=O)c3ccnc(CO)c3)(CC1)CC2 [Compound 977, N-{4-[2-(4-chloro-3-fluorophenoxy)acetamido]bicyclo[2.2.2]octan-1-yl}-2-(hydroxymethyl)pyridine-4-carboxamide]	< 5.70
CC(C)(C)OC(=O)NCc1ccnc(C(=O)NC23CCC(NC(=O)COc4ccc(Cl)c(F)c4)(CC2)CC3)c1 [Compound 978, tert-butyl {[2-({4-[2-(4-chloro-3-fluorophenoxy)acetamido]bicyclo[2.2.2]octan-1-yl}carbamoyl)pyridin-4-yl]methyl}carbamate]	< 5.70
CCc1cnc(C(=O)NC23CCC(NC(=O)COc4ccc(Cl)c(F)c4)(CC2)CC3)cn1 [Compound 979, N-{4-[2-(4-chloro-3-fluorophenoxy)acetamido]bicyclo[2.2.2]octan-1-yl}-5-ethylpyrazine-2-carboxamide]	< 5.70
O=C(COc1ccc(Cl)c(Cl)c1)NC12CCC(NC(=O)c3ccc(C(F)F)cn3)(CC1)CC2 [Compound 980, N-{4-[2-(3,4-dichlorophenoxy)acetamido]bicyclo[2.2.2]octan-1-yl}-5-(difluoromethyl)pyridine-2-carboxamide]	6.60 to 7.30
O=C(COc1ccc(Cl)c(F)c1)NC12CCC(NC(=O)c3cccc(CO)c3)(CC1)CC2 [Compound 981, N-{4-[2-(4-chloro-3-fluorophenoxy)acetamido]bicyclo[2.2.2]octan-1-yl}-3-(hydroxymethyl)benzamide]	6.00 to 6.60
O=C(COc1ccc(Cl)c(F)c1)NC12CCC(NC(=O)c3cccc(O)c3)(CC1)CC2 [Compound 982, N-{4-[2-(4-chloro-3-fluorophenoxy)acetamido]bicyclo[2.2.2]octan-1-yl}-3-hydroxybenzamide]	6.00 to 6.60
O=C(COc1ccc(Cl)c(F)c1)NC12CCC(NC(=O)c3cc(C(F)F)no3)(CC1)CC2 [Compound 983, N-{4-[2-(4-chloro-3-fluorophenoxy)acetamido]bicyclo[2.2.2]octan-1-yl}-3-(difluoromethyl)-1,2-oxazole-5-carboxamide]	6.00 to 6.60
O=C(COc1ccc(Cl)c(F)c1)NC12CCC(NC(=O)c3ccc4c(c3)OC(F)(F)O4)(CC1)C[C@@H]2O [Compound 984, N-{(3S)-4-[2-(4-chloro-3-fluorophenoxy)acetamido]-3-hydroxybicyclo[2.2.2]octan-1-yl}-2,2-difluoro-2H-1,3-benzodioxole-5-carboxamide]	> 7.30
O=C(COc1ccc(Cl)c(Cl)c1)NC12CCC(NC(=O)c3ccc4c(c3)OC(F)(F)O4)(CC1)C[C@@H]2O [Compound 985, N-{(3S)-4-[2-(3,4-dichlorophenoxy)acetamido]-3-hydroxybicyclo[2.2.2]octan-1-yl}-2,2-difluoro-2H-1,3-benzodioxole-5-carboxamide]	> 7.30
O=C(COc1ccc(Cl)c(F)c1)NC12CCC(NC(=O)c3cnc(C(F)F)cn3)(CC1)C[C@@H]2O [Compound 986, N-{(3S)-4-[2-(4-chloro-3-fluorophenoxy)acetamido]-3-hydroxybicyclo[2.2.2]octan-1-yl}-5-(difluoromethyl)pyrazine-2-carboxamide]	> 7.30
O=C(COc1ccc(Cl)c(Cl)c1)NC12CCC(NC(=O)c3ccc(C(F)F)nc3)(CC1)C[C@@H]2O [Compound 987, N-{(3S)-4-[2-(3,4-dichlorophenoxy)acetamido]-3-hydroxybicyclo[2.2.2]octan-1-yl}-6-(difluoromethyl)pyridine-3-carboxamide]	> 7.30
O=C(COc1ccc(Cl)c(F)c1)NC12CCC(NC(=O)c3ccc(C(F)F)nc3)(CC1)C[C@@H]2O [Compound 988, N-{(3S)-4-[2-(4-chloro-3-fluorophenoxy)acetamido]-3-hydroxybicyclo[2.2.2]octan-1-yl}-6-(difluoromethyl)pyridine-3-carboxamide]	6.60 to 7.30
O=C(COc1ccc(Cl)c(F)c1)NC12CCC(NC(=O)c3cnc(C4CC4)o3)(CC1)CC2 [Compound 989, N-{4-[2-(4-chloro-3-fluorophenoxy)acetamido]bicyclo[2.2.2]octan-1-yl}-2-cyclopropyl-1,3-oxazole-5-carboxamide]	6.00 to 6.60
O=C(COc1ccc(Cl)c(Cl)c1)NC12CCC(NC(=O)c3ccc(C(F)F)cn3)(CC1)C[C@@H]2O [Compound 990, N-{(3S)-4-[2-(3,4-dichlorophenoxy)acetamido]-3-hydroxybicyclo[2.2.2]octan-1-yl}-5-(difluoromethyl)pyridine-2-carboxamide]	> 7.30
O=C(COc1ccc(Cl)c(Cl)c1)NC12CCC(NC(=O)c3cc(CO)ccn3)(CC1)CC2 [Compound 991, N-{4-[2-(3,4-dichlorophenoxy)acetamido]bicyclo[2.2.2]octan-1-yl}-4-(hydroxymethyl)pyridine-2-carboxamide]	> 7.30
COCc1cncc(C(=O)NC23CCC(NC(=O)COc4ccc(Cl)c(Cl)c4)(CC2)CC3)c1 [Compound 992, N-{4-[2-(3,4-dichlorophenoxy)acetamido]bicyclo[2.2.2]octan-1-yl}-5-(methoxymethyl)pyridine-3-carboxamide]	6.60 to 7.30
O=C(COc1ccc(Cl)c(Cl)c1)NC12CCC(NC(=O)c3ccccn3)(CC1)CC2 [Compound 993, N-{4-[2-(3,4-dichlorophenoxy)acetamido]bicyclo[2.2.2]octan-1-yl}pyridine-2-carboxamide]	6.60 to 7.30
O=C(COc1ccc(Cl)c(Cl)c1)NC12CCC(NC(=O)c3cccnc3)(CC1)CC2 [Compound 994, N-{4-[2-(3,4-dichlorophenoxy)acetamido]bicyclo[2.2.2]octan-1-yl}pyridine-3-carboxamide]	6.00 to 6.60
O=C(COc1ccc(Cl)c(F)c1)NC12CCC(NC(=O)c3cc(CO)ccn3)(CC1)CC2 [Compound 995, N-{4-[2-(4-chloro-3-fluorophenoxy)acetamido]bicyclo[2.2.2]octan-1-yl}-4-(hydroxymethyl)pyridine-2-carboxamide]	> 7.30
O=C(COc1ccc(Cl)c(F)c1)NC12CCC(NC(=O)c3ccc(OC(F)(F)F)nc3)(CC1)CC2 [Compound 996, N-{4-[2-(4-chloro-3-fluorophenoxy)acetamido]bicyclo[2.2.2]octan-1-yl}-6-(trifluoromethoxy)pyridine-3-carboxamide]	< 5.70
O=C(COc1ccc(Cl)c(F)c1)NC12CCC(NC(=O)c3ccc(OC(F)(F)F)cn3)(CC1)CC2 [Compound 997, N-{4-[2-(4-chloro-3-fluorophenoxy)acetamido]bicyclo[2.2.2]octan-1-yl}-5-(trifluoromethoxy)pyridine-2-carboxamide]	6.60 to 7.30
O=C(COc1ccc(Cl)c(F)c1)NC12CCC(NC(=O)c3ccc4cc(F)ccc4n3)(CC1)C[C@@H]2O [Compound 998, N-{(3S)-4-[2-(4-chloro-3-fluorophenoxy)acetamido]-3-hydroxybicyclo[2.2.2]octan-1-yl}-6-fluoroquinoline-2-carboxamide]	> 7.30
O=C(COc1ccc(Cl)c(Cl)c1)NC12CCC(NC(=O)c3ccc4cc(F)ccc4n3)(CC1)C[C@@H]2O [Compound 999, N-{(3S)-4-[2-(3,4-dichlorophenoxy)acetamido]-3-hydroxybicyclo[2.2.2]octan-1-yl}-6-fluoroquinoline-2-carboxamide]	> 7.30
O=C(COc1ccc(Cl)c(Cl)c1)NC12CCC(NC(=O)c3ccc(C(F)(F)F)o3)(CC1)C[C@@H]2O [Compound 1000, N-{(3S)-4-[2-(3,4-dichlorophenoxy)acetamido]-3-hydroxybicyclo[2.2.2]octan-1-yl}-5-(trifluoromethyl)furan-2-carboxamide]	> 7.30
O=C(COc1ccc(Cl)c(Cl)c1)NC12CCC(NC(=O)c3ccc(OC(F)(F)F)nc3)(CC1)C[C@@H]2O [Compound 1001, N-{(3S)-4-[2-(3,4-dichlorophenoxy)acetamido]-3-hydroxybicyclo[2.2.2]octan-1-yl}-6-(trifluoromethoxy)pyridine-3-carboxamide]	> 7.30
Cc1cc(C(=O)NC23CCC(NC(=O)COc4ccc(Cl)c(Cl)c4)(CC2)[C@@H](O)C3)sn1 [Compound 1002, N-{(3S)-4-[2-(3,4-dichlorophenoxy)acetamido]-3-hydroxybicyclo[2.2.2]octan-1-yl}-3-methyl-1,2-thiazole-5-carboxamide]	> 7.30
O=C(COc1ccc(Cl)c(Cl)c1)NC12CCC(NC(=O)c3cc(CO)ccn3)(CC1)C[C@@H]2O [Compound 1003, N-{(3S)-4-[2-(3,4-dichlorophenoxy)acetamido]-3-hydroxybicyclo[2.2.2]octan-1-yl}-4-(hydroxymethyl)pyridine-2-carboxamide]	> 7.30
